{"source": "patent US5393788A", "about": "“Phenylalkyl oxamides” (SmithKline Beecham Corporation, priority 1993, dated 1995)", "key": {"[1]": {"tested_on": "TNF / endotoxin shock", "assay": "Two in vivo models of endotoxin shock (one or both, not specified)", "design": "species or system mouse", "settings": "for protection from the lethal effects of endotoxin shock: in vivo endotoxin shock models", "excerpt": "(§1) Two models of endotoxin shock have been utilized to determine in vivo TNF activity for the compounds of Formula (1). The protocol used in these models is described in Badger et al., EPO published Application 0 411 754 A2, Feb. 6, 1991, and in Hanna, WO 90/15534, Dec. 27, 1990."}, "[2]": {"tested_on": "TNF production / endotoxic shock", "assay": "P acnes/LPS treated mice model of endotoxic shock", "assay_type": "in vivo", "excerpt": "as §1"}, "[3]": {"tested_on": "serum TNF", "assay": "LPS/GAL mouse model of endotoxic shock", "assay_type": "in vivo", "excerpt": "as §1"}}, "data": [{"smiles": "COc1ccc(CCNC(=O)C(N)=O)cc1OC", "note": "[Example 8, N-[2-(3,4-Dimethoxyphenyl)ethyl]oxamide]", "values": [{"measurement": "protection from the lethal effects of endotoxin shock", "setting": "[1]", "value": "protected the animals from endotoxic induced shock"}, {"measurement": "in vivo TNF levels", "setting": "[1]; one or both of the in vivo assays", "value": "inhibited in vivo TNF levels"}]}, {"smiles": "COc1ccc(CCNC(=O)C(N)=O)cc1OC1CCCC1", "note": "[Example 15, N-[2-(3-Cyclopentyloxy-4-methoxyphenyl)ethyl]oxamide]", "values": [{"measurement": "survival rate", "setting": "[2]; P acnes/LPS model, control group 100% lethality", "value": 80, "unit": "%"}, {"measurement": "TNF production", "setting": "[2]; P acnes/LPS treated mice", "value": "inhibition of TNF production"}, {"measurement": "protection from the lethal effects of endotoxin shock", "setting": "[1]", "value": "protection from the lethal effects of endotoxin shock"}, {"measurement": "serum TNF levels", "setting": "[3]", "value": "reduction in serum TNF levels"}]}]}
